Results reported in PMC4890002, “The CebE/MsiK Transporter is a Doorway to the Cello-oligosaccharide-mediated Induction of Streptomyces scabies Pathogenicity” (Scientific Reports, 2016).
Read-outs that look alike come from different tables or passages of the source.

T1: CebE (SCAB57751, CebE^scab) (Streptomyces scabiei, UniProt C9Z451)
T1 construct: gene SCAB_57751; N-terminally 6His-tagged CebE without its first 44 codons (signal peptide and membrane-anchoring lipopeptide), produced in E. coli
T1 sequence (C9Z451 45-454): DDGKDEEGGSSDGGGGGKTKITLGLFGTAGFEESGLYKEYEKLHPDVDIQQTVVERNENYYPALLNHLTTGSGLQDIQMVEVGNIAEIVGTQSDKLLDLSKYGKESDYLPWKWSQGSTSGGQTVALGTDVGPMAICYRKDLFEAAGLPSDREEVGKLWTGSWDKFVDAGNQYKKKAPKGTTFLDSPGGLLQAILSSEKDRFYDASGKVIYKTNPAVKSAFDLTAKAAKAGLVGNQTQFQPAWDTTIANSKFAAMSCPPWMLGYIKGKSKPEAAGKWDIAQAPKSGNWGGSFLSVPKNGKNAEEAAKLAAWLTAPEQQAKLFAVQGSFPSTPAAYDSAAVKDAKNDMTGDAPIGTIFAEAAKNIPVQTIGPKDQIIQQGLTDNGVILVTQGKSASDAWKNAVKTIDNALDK

B1: cbsbglC probe (dsDNA)
DNA 1: CGACCACCAATGGGAGCGCTTCCATGCCTGAACC
DNA 2: GGTTCAGGCATGGAAGCGCTCCCATTGGTGGTCG

Tests used:
CebR (SCAB57761) = biological target: T2, CebR (SCAB57761) (Streptomyces scabiei, UniProt C9Z452); experiment: EMSA: loss of DNA binding of pure CebR-His6 preincubated with the sugar; type: biochemical
T2 construct: gene SCAB_57761; CebR-His6 (pure)

[1] = biological target: T1, CebE (SCAB57751, CebE^scab); experiment: intrinsic tryptophan fluorescence titration of purified protein; type: binding
CebR = CebR (UniProt C9Z452 1-352); experiment: EMSA; CebR 0-480 nM; no oligosaccharide; EMSA as in earlier work (buffer, salt, pH not given); 15 pmol Cy5 probe and 150 pmol CebR-6His in Methods, legend gives 6 nM probe (panel D) and CebR 0-480 nM (panel C); 1% agarose gel run at room temperature; conditions: protein: recombinant; tags: His6 (printed as CebR-6His / CebR-His6); chain copies: 2; blunt

Molecule | EMSA: loss of DNA binding of pure CebR-His6 preincubated with the sugar (CebR (SCAB57761)) | Kd [1] [nM] | Kd ([1]; read-out: Kd) [nM] | binding result (CebR)
OC[C@H]1O[C@@H](O[C@H]2[C@H](O)[C@@H](O)C(O)O[C@@H]2CO)[C@H](O)[C@@H](O)[C@@H]1O (some centres unmarked) [(Glc)2, cellobiose] | EMSAs demonstrating that cellobiose and cellotriose are able to inhibit the DNA-binding ability of CebR | 14 |  | 
OC[C@H]1O[C@@H](O[C@H]2[C@H](O)[C@@H](O)[C@H](O[C@H]3[C@H](O)[C@@H](O)C(O)O[C@@H]3CO)O[C@@H]2CO)[C@H](O)[C@@H](O)[C@@H]1O (some centres unmarked) [(Glc)3, cellotriose] | EMSAs demonstrating that cellobiose and cellotriose are able to inhibit the DNA-binding ability of CebR |  | 2 | 
B1 |  |  |  | binds
